Results: ChEMBL document CHEMBL1201862, “PubChem BioAssay data set” (2004)
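Test compounds were applied to cells in 96-well plates for 48 hours at 5 doses. GI50 marks 50% less growth.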 The source made the active and inactive calls. Cut-off read from the data, not from the text of the source: active = GI50 up to about 1.1 µM and inactive = higher.

Experiments:
Test in all cases: NCI tumour cell line growth inhibition, 48 h
786-0 = system: 786-0
A498 = system: A498
A549 = system: A549
ACHN = system: ACHN
CAKI-1 = system: CAKI-1
CCRF-CEM = system: CCRF-CEM
COLO 205 = system: COLO 205
DLD-1 = system: DLD-1
DMS-273 = system: DMS-273
EKVX = system: EKVX
HCT-15 = system: HCT-15
HL-60 = system: HL-60
HOP-18 = system: HOP-18
HOP-92 = system: HOP-92
HT-29 = system: HT-29
IGROV-1 = system: IGROV-1
K562 = system: K562
KM-20L2 = system: KM-20L2
KM12 = system: KM12
LOX IMVI = system: LOX IMVI
LXFL 529 = system: LXFL 529
M14 = system: M14
M19-MEL = system: M19-MEL
MOLT-4 = system: MOLT-4
Malme-3M = system: Malme-3M
NCI-H23 = system: NCI-H23
NCI-H460 = system: NCI-H460
NCI-H522 = system: NCI-H522
OVCAR-3 = system: OVCAR-3
OVCAR-4 = system: OVCAR-4
OVCAR-5 = system: OVCAR-5
OVCAR-8 = system: OVCAR-8
RPMI-8226 = system: RPMI-8226
RXF 393 = system: RXF 393
SF-268 = system: SF-268
SF-295 = system: SF-295
SF-539 = system: SF-539
SK-MEL-28 = system: SK-MEL-28
SK-MEL-2 = system: SK-MEL-2
SK-MEL-5 = system: SK-MEL-5
SK-OV-3 = system: SK-OV-3
SN12C = system: SN12C
SNB-19 = system: SNB-19
SNB-75 = system: SNB-75
SW-620 = system: SW-620
TK-10 = system: TK-10
U-251 = system: U-251
UACC-257 = system: UACC-257
UACC-62 = system: UACC-62
UO-31 = system: UO-31
XF498 = system: XF498
HCC 2998 = system: HCC 2998
HCT-116 = system: HCT-116
HOP-62 = system: HOP-62
NCI-H226 = system: NCI-H226
SNB-78 = system: SNB-78
SR = system: SR

CC(NS(=O)(=O)c1ccc(Cl)cc1)C(=O)O (stereo not given)
GI50 (786-0): > 100 µM (inactive)
GI50 (A498): > 100 µM (inactive)
GI50 (A549): > 100 µM (inactive)
GI50 (ACHN): > 100 µM (inactive)
GI50 (CAKI-1): > 100 µM (inactive)
GI50 (CCRF-CEM): > 100 µM (inactive)
GI50 (COLO 205): > 100 µM (inactive)
GI50 (DLD-1): > 100 µM (inactive)
GI50 (DMS-273): > 100 µM (inactive)
GI50 (EKVX): > 100 µM (inactive)
GI50 (HCT-15): > 100 µM
GI50 (HL-60): > 100 µM (inactive)
GI50 (HOP-18): > 100 µM (inactive)
GI50 (HOP-92): > 100 µM (inactive)
GI50 (HT-29): > 100 µM (inactive)
GI50 (IGROV-1): > 100 µM (inactive)
GI50 (K562): > 100 µM (inactive)
GI50 (KM-20L2): > 100 µM (inactive)
GI50 (KM12): > 100 µM (inactive)
GI50 (LOX IMVI): > 100 µM (inactive)
GI50 (LXFL 529): > 100 µM (inactive)
GI50 (M14): > 100 µM (inactive)
GI50 (M19-MEL): > 100 µM (inactive)
GI50 (MOLT-4): > 100 µM (inactive)
GI50 (Malme-3M): > 100 µM (inactive)
GI50 (NCI-H23): > 100 µM (inactive)
GI50 (NCI-H460): > 100 µM (inactive)
GI50 (NCI-H522): > 100 µM (inactive)
GI50 (OVCAR-3): > 100 µM (inactive)
GI50 (OVCAR-4): > 100 µM (inactive)
GI50 (OVCAR-5): > 100 µM (inactive)
GI50 (OVCAR-8): > 100 µM (inactive)
GI50 (RPMI-8226): > 100 µM (inactive)
GI50 (RXF 393): > 100 µM (inactive)
GI50 (SF-268): > 100 µM (inactive)
GI50 (SF-295): > 100 µM (inactive)
GI50 (SF-539): > 100 µM (inactive)
GI50 (SK-MEL-28): > 100 µM (inactive)
GI50 (SK-MEL-2): > 100 µM (inactive)
GI50 (SK-MEL-5): > 100 µM (inactive)
GI50 (SK-OV-3): > 100 µM (inactive)
GI50 (SN12C): > 100 µM (inactive)
GI50 (SNB-19): > 100 µM (inactive)
GI50 (SNB-75): > 100 µM (inactive)
GI50 (SW-620): > 100 µM (inactive)
GI50 (TK-10): > 100 µM (inactive)
GI50 (U-251): > 100 µM (inactive)
GI50 (UACC-257): > 100 µM (inactive)
GI50 (UACC-62): > 100 µM (inactive)
GI50 (UO-31): > 100 µM (inactive)
GI50 (XF498): 66.7 µM (inactive)

C=C1C(=O)OC2C=C(CCC(C)=O)C(C)C(OC(C)=O)CC12 (stereo not given)
GI50 (786-0): 9.68 µM (inactive)
GI50 (A498): 16.1 µM (inactive)
GI50 (A549): 22.2 µM (inactive)
GI50 (ACHN): 6.84 µM (inactive)
GI50 (CAKI-1): 8.83 µM (inactive)
GI50 (CCRF-CEM): 2.6 µM (inactive)
GI50 (EKVX): 12.9 µM (inactive)
GI50 (HCC 2998): 9.93 µM (inactive)
GI50 (HCT-116): 5.19 µM (inactive)
GI50 (HCT-15): 6.11 µM
GI50 (HL-60): 3.33 µM (inactive)
GI50 (HOP-18): 11.7 µM (inactive)
GI50 (HOP-62): > 10 µM (inactive)
GI50 (HOP-92): 3.99 µM (inactive)
GI50 (HT-29): 11.8 µM (inactive)
GI50 (IGROV-1): 21.5 µM (inactive)
GI50 (K562): 3.86 µM (inactive)
GI50 (KM-20L2): 4.89 µM (inactive)
GI50 (KM12): 16.1 µM (inactive)
GI50 (LOX IMVI): 1.61 µM (inactive)
GI50 (LXFL 529): 0.447 µM (active)
GI50 (M14): 5.42 µM (inactive)
GI50 (M19-MEL): 14.6 µM (inactive)
GI50 (MOLT-4): 6.1 µM (inactive)
GI50 (Malme-3M): 11.2 µM (inactive)
GI50 (NCI-H226): 13.6 µM (inactive)
GI50 (NCI-H460): 18.7 µM (inactive)
GI50 (OVCAR-3): 12.7 µM (inactive)
GI50 (OVCAR-4): 13.1 µM (inactive)
GI50 (OVCAR-5): 16.1 µM (inactive)
GI50 (OVCAR-8): 16.5 µM (inactive)
GI50 (RPMI-8226): 4.52 µM (inactive)
GI50 (RXF 393): 2.41 µM (inactive)
GI50 (SF-268): 16.1 µM (inactive)
GI50 (SF-295): 17.7 µM (inactive)
GI50 (SF-539): 15.2 µM (inactive)
GI50 (SK-MEL-28): 8.26 µM (inactive)
GI50 (SK-MEL-2): 14.2 µM (inactive)
GI50 (SN12C): 15.7 µM (inactive)
GI50 (SNB-19): 17.6 µM (inactive)
GI50 (SNB-75): 10.8 µM (inactive)
GI50 (SNB-78): 7.94 µM (inactive)
GI50 (SR): 11.8 µM (inactive)
GI50 (SW-620): 0.313 µM (active)
GI50 (TK-10): 12 µM (inactive)
GI50 (U-251): 17.1 µM (inactive)
GI50 (UACC-62): 12.6 µM (inactive)
GI50 (UO-31): 13.6 µM (inactive)
GI50 (XF498): 12.9 µM (inactive)
